Results: ChEMBL document CHEMBL1201862, “PubChem BioAssay data set” (2004)
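Step 1: Grow cells in 96-well plates. Step 2: Expose to compound for 48 hours at 5 concentrations. Step 3: Interpolate endpoints linearly; if unreached, use highest concentration. At the GI50, growth is halved.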 Calls of active or inactive are those of the source. Cut-off read from the data, not from the text of the source: active = GI50 up to about 1.1 µM and inactive = higher.

What was measured:
Test in all cases: DTP human tumour cell line panel, 48 h
[1] = test system: KM12
[2] = test system: LOX IMVI
[3] = test system: HL-60
[4] = test system: MOLT-4
[5] = test system: SK-MEL-5
[6] = test system: NCI-H23
[7] = test system: UO-31
[8] = test system: SR
[9] = test system: OVCAR-5
[10] = test system: MDA-MB-231
[11] = test system: 786-0
[12] = test system: MDA-N
[13] = test system: MCF7
[14] = test system: SNB-75
[15] = test system: SW-620
[16] = test system: NCI-H226
[17] = test system: HOP-92
[18] = test system: M14
[19] = test system: HOP-62
[20] = test system: U-251
[21] = test system: BT-549
[22] = test system: HT-29
[23] = test system: PC-3
[24] = test system: ACHN
[25] = test system: RXF 393
[26] = test system: OVCAR-8
[27] = test system: EKVX
[28] = test system: DU-145
[29] = test system: OVCAR-4
[30] = test system: Hs-578T
[31] = test system: IGROV-1
[32] = test system: SK-MEL-28
[33] = test system: HCT-116
[34] = test system: SF-295
[35] = test system: SNB-19
[36] = test system: SF-268
[37] = test system: RPMI-8226
[38] = test system: K562
[39] = test system: UACC-257
[40] = test system: CCRF-CEM
[41] = test system: SN12C
[42] = test system: Malme-3M
[43] = test system: OVCAR-3
[44] = test system: MDA-MB-435
[45] = test system: TK-10
[46] = test system: SK-OV-3
[47] = test system: SK-MEL-2
[48] = test system: HCT-15
[49] = test system: T47D
[50] = test system: A498
[51] = test system: NCI/ADR-RES
[52] = test system: CAKI-1
[53] = test system: COLO 205
[54] = test system: A549
[55] = test system: SF-539
[56] = test system: NCI-H460
[57] = test system: UACC-62
[58] = test system: HCC 2998
[59] = test system: NCI-H522

COC(=O)[C@@H]1[C@H](O)[C@H](C)[C@H](O)[C@H](C)/C=C\C=C(\C)C(=O)Nc2c(C)c(OC(C)=O)c3c(c2O)C(=O)C(C)=C2OCOC(=C23)/C(C)=C/[C@@H](O)[C@H](O)[C@@H](C)[C@H]1OC(C)=O
GI50 [1]: 95.3 µM (inactive)
GI50 [2]: 40 µM (inactive)
GI50 [3]: 5.36 µM (inactive)
GI50 [4]: 26.5 µM (inactive)
GI50 [5]: 57.4 µM (inactive)
GI50 [6]: > 100 µM (inactive)
GI50 [7]: 38.5 µM (inactive)
GI50 [8]: 33 µM (inactive)
GI50 [9]: > 100 µM (inactive)
GI50 [10]: 92.9 µM (inactive)
GI50 [11]: > 100 µM (inactive)
GI50 [12]: 22.2 µM (inactive)
GI50 [13]: 26.2 µM (inactive)
GI50 [14]: > 100 µM (inactive)
GI50 [15]: 32.1 µM (inactive)
GI50 [16]: > 100 µM (inactive)
GI50 [17]: 80.5 µM (inactive)
GI50 [18]: 38.1 µM (inactive)
GI50 [19]: > 100 µM (inactive)
GI50 [20]: > 100 µM (inactive)
GI50 [21]: > 100 µM (inactive)
GI50 [22]: 31.3 µM (inactive)
GI50 [23]: 31.8 µM (inactive)
GI50 [24]: > 100 µM (inactive)
GI50 [25]: > 100 µM (inactive)
GI50 [26]: 43.8 µM (inactive)
GI50 [27]: > 100 µM (inactive)
GI50 [28]: > 100 µM (inactive)
GI50 [29]: 33.2 µM (inactive)
GI50 [30]: > 100 µM (inactive)
GI50 [31]: 67.9 µM (inactive)
GI50 [32]: 55.6 µM (inactive)
GI50 [33]: 22.5 µM (inactive)
GI50 [34]: > 100 µM (inactive)
GI50 [35]: 21.5 µM (inactive)
GI50 [36]: 78.2 µM (inactive)
GI50 [37]: 15.5 µM (inactive)
GI50 [38]: 52.7 µM (inactive)
GI50 [39]: 28.3 µM (inactive)
GI50 [40]: 44.9 µM (inactive)
GI50 [41]: 36.8 µM (inactive)
GI50 [42]: 34.6 µM (inactive)

COc1cc(S(=O)(=O)N/N=C/c2cc(Br)c(O)c(OC)c2)c(OC)cc1NC(C)=O
GI50 [1]: > 100 µM (inactive)
GI50 [2]: 38.6 µM (inactive)
GI50 [3]: 25 µM (inactive)
GI50 [43]: 92 µM (inactive)
GI50 [4]: 42.9 µM (inactive)
GI50 [5]: 87.7 µM (inactive)
GI50 [44]: 80.5 µM (inactive)
GI50 [45]: 77.3 µM (inactive)
GI50 [46]: > 100 µM (inactive)
GI50 [6]: > 100 µM (inactive)
GI50 [7]: > 100 µM (inactive)
GI50 [8]: 80.2 µM (inactive)
GI50 [9]: > 100 µM (inactive)
GI50 [10]: 52.6 µM (inactive)
GI50 [11]: 27 µM (inactive)
GI50 [12]: 83.6 µM (inactive)
GI50 [13]: 57.4 µM (inactive)
GI50 [14]: > 100 µM (inactive)
GI50 [15]: 35.1 µM (inactive)
GI50 [16]: > 100 µM (inactive)
GI50 [47]: > 100 µM (inactive)
GI50 [17]: 34.1 µM (inactive)
GI50 [48]: 52.6 µM
GI50 [49]: 41.3 µM (inactive)
GI50 [18]: > 100 µM (inactive)
GI50 [19]: > 100 µM (inactive)
GI50 [20]: > 100 µM (inactive)
GI50 [21]: > 100 µM (inactive)
GI50 [22]: 34 µM (inactive)
GI50 [23]: 62.2 µM (inactive)
GI50 [24]: 78.3 µM (inactive)
GI50 [50]: > 100 µM (inactive)
GI50 [25]: 42.6 µM (inactive)
GI50 [26]: > 100 µM (inactive)
GI50 [27]: 55.5 µM (inactive)
GI50 [51]: > 100 µM (inactive)
GI50 [28]: 85.9 µM (inactive)
GI50 [29]: 69.3 µM (inactive)
GI50 [31]: 50.8 µM (inactive)
GI50 [52]: 91 µM (inactive)
GI50 [32]: > 100 µM (inactive)
GI50 [33]: 30.6 µM (inactive)
GI50 [34]: > 100 µM (inactive)
GI50 [35]: > 100 µM (inactive)
GI50 [53]: 23.4 µM (inactive)
GI50 [37]: 47.2 µM (inactive)
GI50 [38]: 41.5 µM (inactive)
GI50 [39]: > 100 µM (inactive)
GI50 [40]: 21.7 µM (inactive)
GI50 [41]: 73.8 µM (inactive)
GI50 [54]: > 100 µM (inactive)
GI50 [55]: 20.2 µM (inactive)

COc1ccc(Nc2nc3ccc(C(F)(F)F)cc3nc2C(=O)O)cc1
GI50 [1]: 23.5 µM (inactive)
GI50 [2]: 32.5 µM (inactive)
GI50 [43]: 19.9 µM (inactive)
GI50 [4]: 29.5 µM (inactive)
GI50 [5]: 26.5 µM (inactive)
GI50 [44]: 34.3 µM (inactive)
GI50 [45]: 30.3 µM (inactive)
GI50 [46]: 20.4 µM (inactive)
GI50 [6]: 20.6 µM (inactive)
GI50 [56]: 26 µM (inactive)
GI50 [9]: 28.2 µM (inactive)
GI50 [57]: 19.1 µM (inactive)
GI50 [10]: 66.4 µM (inactive)
GI50 [11]: 44.8 µM (inactive)
GI50 [12]: 42.2 µM (inactive)
GI50 [13]: 36.6 µM (inactive)
GI50 [14]: 34.1 µM (inactive)
GI50 [15]: 38.4 µM (inactive)
GI50 [16]: 20.6 µM (inactive)
GI50 [47]: 43.9 µM (inactive)
GI50 [17]: 29.6 µM (inactive)
GI50 [48]: 28.6 µM
GI50 [49]: 33.4 µM (inactive)
GI50 [18]: 36.4 µM (inactive)
GI50 [19]: 35.5 µM (inactive)
GI50 [20]: 32.1 µM (inactive)
GI50 [21]: 2.71 µM (inactive)
GI50 [22]: 36.9 µM (inactive)
GI50 [23]: 29.6 µM (inactive)
GI50 [50]: 16.7 µM (inactive)
GI50 [25]: 22.9 µM (inactive)
GI50 [26]: 30.8 µM (inactive)
GI50 [27]: 31.5 µM (inactive)
GI50 [51]: 29.9 µM (inactive)
GI50 [28]: 49.1 µM (inactive)
GI50 [29]: 47.8 µM (inactive)
GI50 [31]: 17.1 µM (inactive)
GI50 [52]: 46.8 µM (inactive)
GI50 [32]: 30.6 µM (inactive)
GI50 [33]: 34.7 µM (inactive)
GI50 [34]: 23.6 µM (inactive)
GI50 [53]: 34.1 µM (inactive)
GI50 [36]: 37.7 µM (inactive)
GI50 [37]: 12.1 µM (inactive)
GI50 [38]: 29.9 µM (inactive)
GI50 [39]: 32.6 µM (inactive)
GI50 [40]: 27 µM (inactive)
GI50 [41]: 30.3 µM (inactive)
GI50 [58]: 24 µM (inactive)
GI50 [54]: 29.4 µM (inactive)
GI50 [55]: 23.9 µM (inactive)
GI50 [42]: 36.6 µM (inactive)

O=C(NNC(=O)c1csc(NC(=S)NC2CCCCC2)n1)c1ccccc1
GI50 [1]: 8.13 µM (inactive)
GI50 [2]: 10.3 µM (inactive)
GI50 [43]: 4.33 µM (inactive)
GI50 [4]: 4.2 µM (inactive)
GI50 [5]: 6.71 µM (inactive)
GI50 [44]: 15.6 µM (inactive)
GI50 [45]: 22 µM (inactive)
GI50 [46]: 12.1 µM (inactive)
GI50 [6]: 16.7 µM (inactive)
GI50 [7]: 13.7 µM (inactive)
GI50 [8]: 2.26 µM (inactive)
GI50 [9]: 11.9 µM (inactive)
GI50 [57]: 10.2 µM (inactive)
GI50 [10]: 13.5 µM (inactive)
GI50 [11]: 12.7 µM (inactive)
GI50 [12]: 13.9 µM (inactive)
GI50 [13]: 2.06 µM (inactive)
GI50 [14]: 83.9 µM (inactive)
GI50 [15]: 10.3 µM (inactive)
GI50 [16]: 7.24 µM (inactive)
GI50 [47]: 22.4 µM (inactive)
GI50 [48]: 2.74 µM
GI50 [49]: 3.37 µM (inactive)
GI50 [18]: 13.5 µM (inactive)
GI50 [19]: 14 µM (inactive)
GI50 [20]: 3.71 µM (inactive)
GI50 [21]: 17.3 µM (inactive)
GI50 [22]: 7.23 µM (inactive)
GI50 [23]: 7.82 µM (inactive)
GI50 [24]: 11.4 µM (inactive)
GI50 [50]: 38 µM (inactive)
GI50 [26]: 6.52 µM (inactive)
GI50 [27]: 1.84 µM (inactive)
GI50 [51]: 4.85 µM (inactive)
GI50 [28]: 18.7 µM (inactive)
GI50 [59]: 11.7 µM (inactive)
GI50 [29]: 3.34 µM (inactive)
GI50 [31]: 1.96 µM (inactive)
GI50 [52]: 18.6 µM (inactive)
GI50 [33]: 2.7 µM (inactive)
GI50 [34]: 11 µM (inactive)
GI50 [53]: 5.25 µM (inactive)
GI50 [36]: 5.66 µM (inactive)
GI50 [37]: 10 µM (inactive)
GI50 [39]: 7.96 µM (inactive)
GI50 [40]: 3.61 µM (inactive)
GI50 [41]: 5.97 µM (inactive)
GI50 [58]: 13.9 µM (inactive)
GI50 [54]: 15.1 µM (inactive)
GI50 [55]: 15 µM (inactive)
GI50 [42]: 15.5 µM (inactive)
